Experimental findings from patent US20240246918A1, “COMPOUNDS AND COMPOSITIONS AS EIF4E INHIBITORS AND THE USES THEREOF” (Ribometrix, Inc., priority 2022, published 2024) are described below.

The structures appear in SMILES notation. pIC50: −log10 of the molar value. Like-named read-outs stand apart in the source and are kept apart here.

In assay [1] the target is T1, human eIF4E protein (Homo sapiens, UniProt P06730).
T1 construct: purchased Novus NBP-45314
As to the kind of experiment: Biochemical competitive binding assay (TR-FRET competition, EDA-m7GDP-ATTO-647N probe). Conditions: read-out: hEIF4E TR-FRET IC50. In short, it runs like this: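 IC50 values come from 4-parameter fits of the normalized 665/620 nm TR-FRET ratio. Compound was first incubated 15 min with 4 nM recombinant His-eIF4E bound to 2.5 nM Eu-anti-His antibody, then 15 min with 5 nM m7GDP-ATTO-647N tracer, in pH 7.5 HEPES buffer with 100 mM KCl, Tween-20 and BSA.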

Assay [2] relates to cap-dependent translation in Flp-In-293 reporter cells. The assay can be described thus: Cellular cap-dependent translation inhibition assay (dual luciferase assay, DLA; Fluc/Rluc ratio, 24 hours). The class given is cell-based. The settings on record: dual luciferase assay, Flp-In-293 reporter cells, 24 hours, Fluc/Rluc ratio, read-out: DLA 205 IC50.
Assay [3] relates to COLO 205 colorectal tumor cells. As to the kind of experiment: Tumor cell viability inhibition assay (CellTiter-Glo 2.0, 72 hours). Conditions: COLO 205 cell viability. Format: cell-based. In short, it runs like this: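 IC50 derived by 4-parameter fitting after normalizing luminescence to DMSO and max-inhibition wells. Compounds tested as 11 concentrations in 4-fold steps on COLO 205 cells seeded at 1500 per well in RPMI-1640/10% FBS; ATP content measured with CellTiter-Glo 2.0 after 72 h.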

T1 sequence (P06730 whole entry): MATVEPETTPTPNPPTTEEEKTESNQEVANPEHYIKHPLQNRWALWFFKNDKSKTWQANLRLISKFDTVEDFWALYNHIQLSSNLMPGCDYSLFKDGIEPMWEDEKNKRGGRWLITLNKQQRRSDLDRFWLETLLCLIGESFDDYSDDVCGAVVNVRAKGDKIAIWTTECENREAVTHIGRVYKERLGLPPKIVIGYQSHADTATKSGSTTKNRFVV

Take `Cc1cc(-c2cc(Cl)ccc2OCCn2c(C)nc3c(c2=O)CC(N(C)C2CC(F)(F)C2)CC3)c2scc(C(=O)NS(C)(=O)=O)c2n1` (single isomer, unassigned) [Compound 94]: the pIC50 in assay [1] was more than 7.00; in assay [2], more than 6.00; in assay [3], more than 5.30.
For `Cc1cc(-c2cc(Cl)ccc2OCCn2c(C)nc3c(c2=O)CC(N(C)Cc2ccncc2)CC3)c2scc(C(=O)O)c2n1` (single isomer, unassigned) [Compound 99], the pIC50 is more than 7.00 in assay [1]; 5.30 to 6.00 in assay [2] (Homo sapiens, Flp-In-293, 24 h); 4.70 to 5.30 in assay [3] (Homo sapiens, COLO 205, 72 h).
The like results for `Cc1cc(-c2cc(Cl)ccc2OCCn2c(C)nc3c(c2=O)CC(N(C)Cc2cc[nH]c(=O)c2)CC3)c2scc(C(=O)O)c2n1` (single isomer, unassigned) [Compound 246] were, in that order, more than 7.00, less than 5.30 and less than 4.70.
Consider `Cc1cc(-c2cc(Cl)ccc2OCCn2c(C)nc3c(c2=O)CC(N(C)Cc2cc[nH]c(=O)c2)CC3)c2scc(C(=O)O)c2n1` (single isomer, unassigned) [Compound 247], for which the pIC50 in assay [1] was more than 7.00; in assay [2], less than 5.30; in assay [3] it was less than 4.70.
`Cc1cc(-c2cc(Cl)ccc2OCCn2c(C)nc3c(c2=O)CC(N2CCCCC2)CC3)c2scc(C(=O)O)c2n1` (single isomer, unassigned) [Compound 249]: the pIC50 is more than 7.00 in assay [1]; more than 6.00 in assay [2] (Homo sapiens, Flp-In-293, 24 h); 4.70 to 5.30 in assay [3] (Homo sapiens, COLO 205, 72 h).
With `Cc1cc(-c2cc(Cl)ccc2OCCn2c(C)nc3c(c2=O)CC(N2CCCCC2)CC3)c2scc(C(=O)O)c2n1` (single isomer, unassigned) [Compound 250], the negative logarithm of the IC50 (pIC50) in assay [1] is more than 7.00; in assay [2], more than 6.00; in assay [3] it was more than 5.30.
Take `Cc1cc(-c2cc(Cl)ccc2OCCn2c(C)nc3c(c2=O)CC(N2CCC(F)(F)CC2)CC3)c2scc(C(=O)NS(C)(=O)=O)c2n1` (single isomer, unassigned) [Compound 251]: the pIC50 is more than 7.00 in assay [1]; more than 6.00 in assay [2] (Homo sapiens, Flp-In-293, 24 h); more than 5.30 in assay [3] (Homo sapiens, COLO 205, 72 h).
As to `Cc1sc2c(-c3cc(Cl)ccc3OCCn3c(C)nc4c(c3=O)CC(N(C)CC3CC(F)(F)C3)CC4)cn(C)c(=O)c2c1C(=O)O` (single isomer, unassigned) [Compound 252], the results for the pIC50 in assay [1], in assay [2] and in assay [3] were more than 7.00, 5.30 to 6.00 and 4.70 to 5.30, respectively.
For `Cc1sc2c(-c3cc(Cl)ccc3OCCn3c(C)nc4c(c3=O)CC(N(C)CC3CC(F)(F)C3)CC4)cn(C)c(=O)c2c1C(=O)O` (single isomer, unassigned) [Compound 253], in that order: 6.30 to 7.00, less than 5.30 and less than 4.70.
The like results for `Cc1cc(-c2cc(Cl)ccc2OCCn2c(C)nc3c(c2=O)CC(N2CCC(F)(F)CC2)CC3)c2scc(C(=O)NS(C)(=O)=O)c2n1` (single isomer, unassigned) [Compound 254] were, in that order, more than 7.00, more than 6.00 and more than 5.30.
Turning to `Cc1cc(-c2cc(Cl)ccc2OCCn2c(C)nc3c(c2=O)CC(N(C)CC2CC(F)(F)C2)CC3)c2scc(C(=O)NS(C)(=O)=O)c2n1` (single isomer, unassigned) [Compound 256], the pIC50 was more than 7.00 in assay [1]; more than 6.00 in assay [2] (Homo sapiens, Flp-In-293, 24 h); more than 5.30 in assay [3] (Homo sapiens, COLO 205, 72 h).
Turning to `Cc1cc(-c2cc(Cl)ccc2OCCn2c(C)nc3c(c2=O)CC(N(C)CC2CC(F)(F)C2)CC3)c2scc(C(=O)O)c2n1` (single isomer, unassigned) [Compound 259], the negative logarithm of the IC50 (pIC50) in assay [1] was more than 7.00; in assay [2] (Homo sapiens, Flp-In-293, 24 h) it was more than 6.00; in assay [3], more than 5.30.
On to `Cc1cc(-c2cc(Cl)ccc2OCCn2c(C)nc3c(c2=O)CC(N2CCC[C@H](F)C2)CC3)c2scc(C(=O)NS(C)(=O)=O)c2n1` (single isomer, unassigned) [Compound 264], for which the pIC50 was more than 7.00 in assay [1]; more than 6.00 in assay [2] (Homo sapiens, Flp-In-293, 24 h); more than 5.30 in assay [3] (Homo sapiens, COLO 205, 72 h).
For `Cc1nc2c(c(=O)n1CC#Cc1ccc(Cl)cc1-c1ccnc3c(C(=O)NS(C)(=O)=O)csc13)CC(N(C)C)CC2` (single isomer, unassigned) [Compound 266], in that order: 5.30 to 6.30, less than 5.30 and less than 4.70.
As to `Cc1nc2c(c(=O)n1CC#Cc1ccc(Cl)cc1-c1ccnc3c(C(=O)NS(C)(=O)=O)csc13)CC(N(C)C)CC2` (single isomer, unassigned) [Compound 273], the pIC50 in assay [1] was 5.30 to 6.30; in assay [2] it was less than 5.30; in assay [3], less than 4.70.
Take `Cc1cc(-c2cc(Cl)ccc2OCCn2c(C)nc3c(c2=O)CC(N(C)C2(c4ccc(F)cc4)CC2)CC3)c2scc(C(=O)O)c2n1` (single isomer, unassigned) [Compound 280]: the pIC50 in assay [1] was 6.30 to 7.00; in assay [2] (Homo sapiens, Flp-In-293, 24 h), 5.30 to 6.00; in assay [3] (Homo sapiens, COLO 205, 72 h), 4.70 to 5.30.
For `Cc1cc(-c2cc(Cl)ccc2OCCn2c(C)nc3c(c2=O)CC(N(C)C2(c4ccc(F)cc4)CC2)CC3)c2scc(C(=O)O)c2n1` (single isomer, unassigned) [Compound 281], the figures for the pIC50 in assay [1], in assay [2] and in assay [3] were 6.30 to 7.00, 5.30 to 6.00 and 4.70 to 5.30, respectively.
For `Cc1cc(-c2cc(Cl)ccc2OCCn2c(C)nc3c(c2=O)C[C@@H](N2CCC[C@H](F)C2)CC3)c2scc(C(=O)O)c2n1` (single isomer, unassigned) [Compound 282], the pIC50 in assay [1] was more than 7.00; in assay [2] (Homo sapiens, Flp-In-293, 24 h), more than 6.00; in assay [3] (Homo sapiens, COLO 205, 72 h), more than 5.30.
Take `Cc1cc(-c2cc(Cl)ccc2OCCn2c(C)nc3c(c2=O)C[C@H](N2CCC[C@H](F)C2)CC3)c2scc(C(=O)O)c2n1` (single isomer, unassigned) [Compound 283]: the pIC50 in assay [1] is more than 7.00; in assay [2] (Homo sapiens, Flp-In-293, 24 h), more than 6.00; in assay [3] (Homo sapiens, COLO 205, 72 h), more than 5.30.
Take `Cc1cc(-c2cc(Cl)ccc2OCCn2c(C)nc3c(c2=O)CC(N(C)C2CC2)CC3)c2scc(C(=O)NS(=O)(=O)c3ccncc3)c2n1` (single isomer, unassigned) [Compound 284]: the pIC50 is more than 7.00 in assay [1]; 5.30 to 6.00 in assay [2] (Homo sapiens, Flp-In-293, 24 h); 4.70 to 5.30 in assay [3] (Homo sapiens, COLO 205, 72 h).
In the case of `Cc1cc(-c2cc(Cl)ccc2OCCn2c(C)nc3c(c2=O)CC(N(C)C2CC2)CC3)c2scc(C(=O)NS(=O)(=O)c3ccncc3)c2n1` (single isomer, unassigned) [Compound 285], the pIC50 was more than 7.00 in assay [1], 5.30 to 6.00 in assay [2] and 4.70 to 5.30 in assay [3].
On to `Cc1cc(-c2cc(Cl)ccc2OCCn2c(C)nc3c(c2=O)CC(N(C)C2CC2)CC3)c2scc(C(=O)NS(=O)(=O)c3ccccn3)c2n1` (single isomer, unassigned) [Compound 286], for which the pIC50 in assay [1] was more than 7.00; in assay [2] (Homo sapiens, Flp-In-293, 24 h) it was more than 6.00; in assay [3] (Homo sapiens, COLO 205, 72 h), more than 5.30.
Turning to `Cc1cc(-c2cc(Cl)ccc2OCCn2c(C)nc3c(c2=O)CC(N(C)C2CC2)CC3)c2scc(C(=O)NS(=O)(=O)c3ccccn3)c2n1` (single isomer, unassigned) [Compound 287], the pIC50 is more than 7.00 in assay [1], 5.30 to 6.00 in assay [2] and 4.70 to 5.30 in assay [3].
Turning to `Cc1cc(-c2cc(Cl)ccc2OCCn2c(C)nc3c(c2=O)CC(N(C)CC2CCNCC2)CC3)c2scc(C(=O)NS(C)(=O)=O)c2n1` (single isomer, unassigned) [Compound 289], the pIC50 is more than 7.00 in assay [1]; 5.30 to 6.00 in assay [2] (Homo sapiens, Flp-In-293, 24 h); 4.70 to 5.30 in assay [3] (Homo sapiens, COLO 205, 72 h).
